Marks after values point to notes of the source that are not given here.
Key:
[1] = test system: BALB/c mice subjected to cecal ligation and puncture; experiment: Survival after cecal ligation and puncture 7 days after trauma, NS-398 twice a day over 7 days; format: in vivo
Excerpt: All cytokine results are reported as mean±SEM of 8 mice per group. The ANOVA was used to determine the significance of the differences between means of traumatized±treatment versus control±treatment groups. A P value of <0.05 was considered significant. For survival studies, Kaplan-Meier (Log-rank) statistical analysis was used to compare all four groups studied. A P value of <0.05 was considered significant.
To evaluate the biological relevance of NS-398, mice were randomized into the four treatment groups. After 7 days, all mice were subjected to cecal ligation and puncture (CLP) and followed for survival over 10 days, when remaining mice were euthanized. […] Only 9% of control mice survived after 200 hours compared to a significant increase in survival of trauma+NS-398 treated mice in which 45% survived.
BALB/C mice (n=8/group) were given 10mg/kg NS398 intraperitoneally BID for 7 days, starting immediately after sham injury or trauma (femur fracture+40% hemorrhage). Four groups, sham+placebo (C); sham+NS398 (CN); trauma+placebo (T); or trauma+NS398 (TN) were studied. On day 7 after trauma, mice were sacrificed and splenic macrophages evaluated for PGE2, TNF-α and NO production (via Student's t-test). In a separate study, mice (n=10-11/group) were traumatized and given NS398 for 7 days. On day 7, cecal ligation and puncture was performed, and mice evaluated for survival over 3 weeks (via Log-rank test).

plasma PGE2 [2] = experiment: Plasma PGE2 levels at 1 and 7 days after trauma; format: in vivo, BALB/c mice
Description: Plasma PGE2 levels were determined in separate experiments by sacrificing mice at 1 day and at 7 days after treatment with NS-398. There was an increase in PGE2 levels at 1 and 7 days after traumatic injury compared with uninjured controls.

NF-κB = experiment: Electrophoretic mobility shift assay of nuclear NF-κB in splenic macrophages; format: in vivo, BALB/c mice; conditions: NS-398 treatment after trauma, over 7 days
Description: NF-κB gel shift oligonucleotide 5′ AGTTGAGGGGACTTTCCCAGGC 3′ (Santa Cruz Laboratories, Santa Cruz, Calif.) was end labeled with (^32P)γATP using polynucleotide kinase T4 (Gibco BRL, Grand Island, N.Y.). End labeled probe was purified from unincorporated (^32P)-γATP using a purification column (Bio-Rad Laboratories) and recovered in tris-EDTA buffer. Samples consisted of adherent macrophages collected after 45 minutes stimulation with 10 ng/mL LPS. Adherent cells were scraped into 1 mL of cold HANKS balanced salt solution. The cell suspension was pelleted after centrifugation in a microcentrifuge for 10 seconds and resuspended in 400 μl cold Buffer A (10 mM HEPES-KOH pH 7.9 at 4° C., 1.5 mM MgCl2, 10 mM KCl, 0.5 mM dithiothreitol, 0.2 mM PMSF) by agitation of the tube. The cells were allowed to swell on ice for 10 minutes, and then vortexed for 10 seconds. Samples were centrifuged for 10 seconds and the supernatant fraction was saved at −70° C. for IκB analysis. The pellet was resuspended in 20-100 μl of cold buffer C (20 mM HEPES-KOH pH 7.9, 25% glycerol, 420 mM NaCl, 1.5 mM MgCl2. 0.2 mM EDTA, 0.5 mM dithiothreitol 0.2 mM PMSF) and incubated on ice for 20 minutes. […] Samples were subjected to electrophoretic separation on a non denaturing 5% poly-acrylamide gel at 30 mA using Tris borate EDTA for 45 minutes and analyzed by exposure to radiographic film (Kodak, Rochester, N.Y.).

plasma PGE2 [3] = experiment: Plasma PGE2 of mice at 6 h after traumatic injury; format: in vivo, BALB/c mice; conditions: for PGE2 levels at 6 h: pooled serum n=6
Description: Vehicle mice were injected with a 4% DMSO solution. To evaluate the efficacy of NS-398 on plasma PGE2 levels, mouse blood was collected at 6 hours after injury±treatment. […] At 6 hours after trauma, plasma PGE2 levels were increased from […] to 49,733 […]).

CS(=O)(=O)Nc1ccc([N+](=O)[O-])cc1OC1CCCCC1 [NS-398, N-(2-cyclohexyloxy-4-nitrophenyl)methanesulfonamide]
survival ([1]; C + NS398, 10 mg/kg i.p. BID for 7 days, CLP on day 7): 0% | survival ([1]; T + NS398, 10 mg/kg i.p. BID for 7 days, CLP on day 7): 45%* | survival (in words) ([1]; control+NS-398 mice after CLP): died shortly after CLP | survival ([1]; trauma+NS-398 treated mice, after 200 hours after CLP): 45% | Plasma PGE2 Day 1 (plasma PGE2 [2]; Control + NS-398): 24,652 pg/ml | Plasma PGE2 Day 7 (plasma PGE2 [2]; Control + NS-398): 7,244 pg/ml | Plasma PGE2 Day 1 (plasma PGE2 [2]; Trauma + NS-398): 26,370 pg/ml | Plasma PGE2 Day 7 (plasma PGE2 [2]; Trauma + NS-398): 4,354 pg/ml | Plasma PGE2 levels (in words) (plasma PGE2 [2]; control and injured mice, 1 and 7 days): attenuated in both control and injured mice | NF-κB activation (NF-κB): a decrease in NF-κB activation | PGE2 levels at 6 h (plasma PGE2 [3]; Control + NS-398, plasma): 35,961 pg/ml | PGE2 levels at 6 h (plasma PGE2 [3]; Trauma + NS-398, plasma): 29,902 pg/ml | plasma PGE2 levels (plasma PGE2 [3]; injured mice treated with NS-398 (TN), 6 hours after trauma): 29900 pg/mL

Reference: patent US20020006915A1, “Use of COX-2 inhibitors to treat sepsis, complications thereof, and EP receptor modulation” (priority 2000, published 2002)
